In patent US20220125051A1, “PRE-HARVEST DESICCATION METHOD” (SYNGENTA CROP PROTECTION AG, priority 2019, published 2022):
Counter-ions that a name gives are not always drawn. Like-named read-outs stand apart in the source and are kept apart here.

Legend:
Test in all cases: Post-emergence efficacy, Method A
Assay type in all cases: in vivo
[1] = test system: Amaranthus palmeri (AMAPA); details: evaluated after 13 days; for pest or weed control at 500 g/ha: Amaranthus palmeri, post-emergence, 312 h
How it was run: (§1)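 Sow in standard soil; grow 14 d under glasshouse control (24/16 °C, 14 h light, 65% humidity). Spray post-emergence with compound formulated in acetone/IF50, diluted in Empicol ESC70 (0.25% or 1%) + 1% ammonium sulphate. Return to glasshouse, water twice daily, score at 13 d on a 0–100 damage scale.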

[2] = test system: Chenopodium album (CHEAL); details: evaluated after 13 days; for pest or weed control at 500 g/ha: Chenopodium album, post-emergence, 312 h
How it was run: as §1

[3] = test system: Digitaria sanguinalis (DIGSA); details: evaluated after 13 days; for pest or weed control at 500 g/ha: Digitaria sanguinalis, post-emergence, 312 h
How it was run: as §1

[4] = test system: Echinochloa crus-galli (ECHCG); details: evaluated after 13 days; for pest or weed control at 500 g/ha: Echinochloa crus-galli, post-emergence, 312 h
How it was run: as §1

Eleusine indica (ELEIN) = details: evaluated after 13 days; for pest or weed control at 500 g/ha: Eleusine indica, post-emergence, 312 h
How it was run: as §1

[5] = test system: Euphorbia heterophylla (EPHHL); details: evaluated after 13 days; for pest or weed control at 500 g/ha: Euphorbia heterophylla, post-emergence, 312 h
How it was run: as §1

[6] = test system: Ipomoea hederacea (IPOHE); details: evaluated after 13 days; for pest or weed control at 500 g/ha: Ipomoea hederacea, post-emergence, 312 h
How it was run: as §1

Lolium perenne (LOLPE) = details: evaluated after 13 days; for pest or weed control at 500 g/ha: Lolium perenne, post-emergence, 312 h
How it was run: as §1

Setaria faberi (SETFA) = details: evaluated after 13 days; for pest or weed control at 500 g/ha: Setaria faberi, post-emergence, 312 h
How it was run: as §1

[7] = Application rate 500 g/Ha, 100=total damage to plant, 0=no damage to plant, read-out: Control of weed species after post-emergence application, AMAPA
[8] = Application rate 500 g/Ha, 100=total damage to plant, 0=no damage to plant, read-out: Control of weed species after post-emergence application, CHEAL
[9] = Application rate 500 g/Ha, 100=total damage to plant, 0=no damage to plant, read-out: Control of weed species after post-emergence application, DIGSA
[10] = Application rate 500 g/Ha, 100=total damage to plant, 0=no damage to plant, read-out: Control of weed species after post-emergence application, ECHCG
[11] = Application rate 500 g/Ha, 100=total damage to plant, 0=no damage to plant, read-out: Control of weed species after post-emergence application, ELEIN
[12] = Application rate 500 g/Ha, 100=total damage to plant, 0=no damage to plant, read-out: Control of weed species after post-emergence application, EPHHL
[13] = Application rate 500 g/Ha, 100=total damage to plant, 0=no damage to plant, read-out: Control of weed species after post-emergence application, IPOHE
[14] = Application rate 500 g/Ha, 100=total damage to plant, 0=no damage to plant, read-out: Control of weed species after post-emergence application, LOLPE
[15] = Application rate 500 g/Ha, 100=total damage to plant, 0=no damage to plant, read-out: Control of weed species after post-emergence application, SETFA
[16] = Application Rate 500 g/Ha, Method A, read-out: Control of weed species after post-emergence application, AMAPA (100=total damage to plant; 0=no damage to plant)
[17] = Application Rate 500 g/Ha, Method A, read-out: Control of weed species after post-emergence application, CHEAL (100=total damage to plant; 0=no damage to plant)
[18] = Application Rate 500 g/Ha, Method A, read-out: Control of weed species after post-emergence application, DIGSA (100=total damage to plant; 0=no damage to plant)
[19] = Application Rate 500 g/Ha, Method A, read-out: Control of weed species after post-emergence application, ECHCG (100=total damage to plant; 0=no damage to plant)
[20] = Application Rate 500 g/Ha, Method A, read-out: Control of weed species after post-emergence application, ELEIN (100=total damage to plant; 0=no damage to plant)
[21] = Application Rate 500 g/Ha, Method A, read-out: Control of weed species after post-emergence application, EPHHL (100=total damage to plant; 0=no damage to plant)
[22] = Application Rate 500 g/Ha, Method A, read-out: Control of weed species after post-emergence application, IPOHE (100=total damage to plant; 0=no damage to plant)
[23] = Application Rate 500 g/Ha, Method A, read-out: Control of weed species after post-emergence application, LOLPE (100=total damage to plant; 0=no damage to plant)
[24] = Application Rate 500 g/Ha, Method A, read-out: Control of weed species after post-emergence application, SETFA (100=total damage to plant; 0=no damage to plant)
[25] = Application rate 500 g/Ha, 100=total damage to plant, 0=no damage to plant

Compound	pest or weed control at 500 g/ha [1, 7] [%]	pest or weed control at 500 g/ha [2, 8] [%]	pest or weed control at 500 g/ha [3, 9] [%]	pest or weed control at 500 g/ha [4, 10] [%]	pest or weed control at 500 g/ha (Eleusine indica (ELEIN); [11]) [%]	pest or weed control at 500 g/ha [5, 12] [%]	pest or weed control at 500 g/ha [6, 13] [%]	pest or weed control at 500 g/ha (Lolium perenne (LOLPE); [14]) [%]	pest or weed control at 500 g/ha (Setaria faberi (SETFA); [15]) [%]	pest or weed control at 500 g/ha [1, 16] [%]	pest or weed control at 500 g/ha [2, 17] [%]	pest or weed control at 500 g/ha [3, 18] [%]	pest or weed control at 500 g/ha [4, 19] [%]	pest or weed control at 500 g/ha (Eleusine indica (ELEIN); [20]) [%]	pest or weed control at 500 g/ha [5, 21] [%]	pest or weed control at 500 g/ha [6, 22] [%]	pest or weed control at 500 g/ha (Lolium perenne (LOLPE); [23]) [%]	pest or weed control at 500 g/ha (Setaria faberi (SETFA); [24]) [%]	further results
Cc1cccc(-c2cc[n+](CCC(=O)[O-])nc2)n1 [Compound A63]	40	30	30	40	50	30	20	20	40										
Cc1cnc(-c2cc[n+](CCS(=O)(=O)[O-])nc2)nc1C [Compound A97]	90	20	90	90	90	70	30	70	90										
CC(C[n+]1ccc(-c2ncccn2)cn1)NS(=O)(=O)[O-] (stereo not drawn) [Compound A221]										100	90	100	60	100	90	60	60	80	
O=S(=O)([O-])OCC[n+]1ccc(-c2ncccn2)cn1 [Compound A194, 2-(4-pyrimidin-2-ylpyridazin-1-ium-1-yl)ethyl sulfate]										100	70	50	70	90	70	60	50	50	
O=C(O)CC[n+]1ccc(-c2ncccc2Cl)cn1 [Compound A149]	30	40	50	50	60	30	10	40	40										
O=S(=O)([O-])CC[n+]1ccc(-c2ncccc2C(F)(F)F)cn1 [Compound A140]	60	50	10	20	10	50	20	0	30										
O=S(=O)([O-])CC[n+]1ccc(-c2ncccc2Cl)cn1 [Compound A141]	100	60	40	50	60	20	30	30	50										
O=S(=O)([O-])CCCC[n+]1ccc(-c2ncccn2)cn1 [Compound A215]										100	60	60	30	30	90	60	20	20	
Nc1nccc(-c2cc[n+](CCS(=O)(=O)[O-])nc2)n1 [Compound A158]										100	80	30	20	50	80	30	30	40	
O=C(O)CC[n+]1ccc(-c2ncc(C(F)(F)F)cc2Cl)cn1 [Compound A197]										100	10	20	0	10	10	10	0	0	
CS(=O)(=O)c1cnc(-c2cc[n+](CCC(=O)[O-])nc2)nc1 [Compound A46]	70	10	50	30	50	60	10	20	50										
COc1cc(C)nc(-c2cc[n+](CCS(=O)(=O)O)nc2)n1 [Compound A94]																			Control of weed species after post-emergence application, AMAPA [1, 25]: 70; Control of weed species after post-emergence application, CHEAL [2, 25]: 90; Control of weed species after post-emergence application, DIGSA [3, 25]: 30; Control of weed species after post-emergence application, ECHCG [4, 25]: 30; Control of weed species after post-emergence application, ELEIN (Eleusine indica (ELEIN); [25]): 20; Control of weed species after post-emergence application, EPHHL [5, 25]: 40; Control of weed species after post-emergence application, IPOHE [6, 25]: 30; Control of weed species after post-emergence application, LOLPE (Lolium perenne (LOLPE); [25]): 20; Control of weed species after post-emergence application, SETFA (Setaria faberi (SETFA); [25]): 40
Nc1cc(-c2cc[n+](CCC(=O)O)nc2)nc(N)n1 [Compound A188]										90	50	40	50	20	30	20	20	30	
O=C(O)CC[n+]1ccc(-c2ccc(C(F)(F)F)cn2)cn1 [Compound A200]										100	70	40	40	30	70	10	40	50	
CC(=O)c1cnc(-c2cc[n+](CCC(=O)[O-])nc2)nc1 [Compound A58]	100	80	90	60	80	60	10	50	90										
